From the Kinase Knowledgebase extract (Sharma et al. 2016)
Several values for one entry are separate records, joined by “and”; a condition that tells them apart may be missing. Identical values can stand only once.

Molecular target: MAPK14 (human) (UniProt Q16539)
Test: Enzyme Assay
Details: concentration not given here

Chain of MAPK14 (human) (Q16539 whole entry, looked up): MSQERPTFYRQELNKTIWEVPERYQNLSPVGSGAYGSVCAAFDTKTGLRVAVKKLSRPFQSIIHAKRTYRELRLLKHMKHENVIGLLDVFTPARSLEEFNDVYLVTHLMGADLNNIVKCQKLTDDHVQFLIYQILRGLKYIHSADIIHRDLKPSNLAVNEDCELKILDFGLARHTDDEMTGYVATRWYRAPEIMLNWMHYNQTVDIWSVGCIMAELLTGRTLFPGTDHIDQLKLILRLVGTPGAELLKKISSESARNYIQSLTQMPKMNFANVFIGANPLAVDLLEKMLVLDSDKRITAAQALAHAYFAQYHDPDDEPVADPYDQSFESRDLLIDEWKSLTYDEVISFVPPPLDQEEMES

Compound | activity [%]
CN[C@@H]1C[C@H]2O[C@@](C)([C@@H]1OC)n1c3ccccc3c3c4c(c5c6ccccc6n2c5c31)C(=O)N[C@@H]4O | 92
CO[C@H]1C[C@@H]2CC[C@@H](C)[C@@](O)(O2)C(=O)C(=O)N2CCCC[C@H]2C(=O)O[C@H]([C@H](C)C[C@@H]2CC[C@@H](O)[C@H](OC)C2)CC(=O)[C@H](C)C=C(C)[C@@H](O)[C@@H](OC)C(=O)[C@H](C)C[C@H](C)C=CC=CC=C1C | 93

Molecular target: PIK3CA (human) (UniProt P42336)
Sequence (P42336 whole entry, looked up): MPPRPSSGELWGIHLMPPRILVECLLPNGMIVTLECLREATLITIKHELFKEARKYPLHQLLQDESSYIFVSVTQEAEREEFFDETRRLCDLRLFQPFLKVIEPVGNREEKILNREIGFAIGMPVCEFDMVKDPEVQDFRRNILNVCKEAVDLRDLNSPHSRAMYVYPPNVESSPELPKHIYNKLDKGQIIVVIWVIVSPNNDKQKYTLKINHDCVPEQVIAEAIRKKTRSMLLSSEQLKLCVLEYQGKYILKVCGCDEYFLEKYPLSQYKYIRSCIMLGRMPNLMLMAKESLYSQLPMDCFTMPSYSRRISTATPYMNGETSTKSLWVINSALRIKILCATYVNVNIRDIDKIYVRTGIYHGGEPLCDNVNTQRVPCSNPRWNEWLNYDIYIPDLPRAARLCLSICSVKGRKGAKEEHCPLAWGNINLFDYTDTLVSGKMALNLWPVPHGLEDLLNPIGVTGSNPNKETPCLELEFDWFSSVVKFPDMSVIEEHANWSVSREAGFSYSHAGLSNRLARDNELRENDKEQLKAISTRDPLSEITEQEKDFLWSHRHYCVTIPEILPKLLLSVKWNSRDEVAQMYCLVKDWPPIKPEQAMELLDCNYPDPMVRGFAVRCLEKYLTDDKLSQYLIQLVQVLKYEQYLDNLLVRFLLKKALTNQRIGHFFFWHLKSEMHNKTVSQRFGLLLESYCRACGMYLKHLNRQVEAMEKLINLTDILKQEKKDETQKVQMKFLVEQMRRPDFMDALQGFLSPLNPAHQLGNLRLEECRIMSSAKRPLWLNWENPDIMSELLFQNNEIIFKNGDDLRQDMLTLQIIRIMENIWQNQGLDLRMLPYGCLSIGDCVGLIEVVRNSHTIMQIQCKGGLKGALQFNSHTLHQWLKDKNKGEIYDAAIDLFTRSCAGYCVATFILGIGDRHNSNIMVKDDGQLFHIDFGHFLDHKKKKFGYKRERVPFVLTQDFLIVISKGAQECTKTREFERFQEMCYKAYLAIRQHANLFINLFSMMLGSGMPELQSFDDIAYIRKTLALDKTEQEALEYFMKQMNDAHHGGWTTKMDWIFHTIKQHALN
Test: Enzyme Assay
Details: not given

Compound | IC50 [nM] | Ki [nM]
CS(=O)(=O)N1CCN(Cc2csc3c(-c4cnc(N)nc4)nc(N4CCOCC4)nc23)CC1 | 9.5 | 
CCNC(=O)Nc1ccc(-c2nc(N3CCOC[C@H]3C)c3c(ncn3C)n2)cc1 |  | 5800
COc1ncc(N2CCc3ncnc(N[C@H]4CCN(C(=O)[C@H]5CC[C@H](O)CC5)C4)c3C2)cc1C(F)(F)F | 106 | 
CCNC(=O)Nc1ccc(-c2nc(N3CCOC[C@@H]3CC)c3c(ncn3C)n2)cc1 |  | > 10000
COc1ncc(N2CCc3ncnc(N[C@H]4CCN(C(=O)[C@H]5CC[C@@H](O)CC5)C4)c3C2)cc1C(F)(F)F | 118 | 
CCNC(=O)Nc1ccc(-c2nc(N3CCCOCC3)c3c(ncn3C)n2)cc1 |  | 6400

Molecular target: PIK3CD (Human) (UniProt O00329)
Sequence (O00329 whole entry, looked up): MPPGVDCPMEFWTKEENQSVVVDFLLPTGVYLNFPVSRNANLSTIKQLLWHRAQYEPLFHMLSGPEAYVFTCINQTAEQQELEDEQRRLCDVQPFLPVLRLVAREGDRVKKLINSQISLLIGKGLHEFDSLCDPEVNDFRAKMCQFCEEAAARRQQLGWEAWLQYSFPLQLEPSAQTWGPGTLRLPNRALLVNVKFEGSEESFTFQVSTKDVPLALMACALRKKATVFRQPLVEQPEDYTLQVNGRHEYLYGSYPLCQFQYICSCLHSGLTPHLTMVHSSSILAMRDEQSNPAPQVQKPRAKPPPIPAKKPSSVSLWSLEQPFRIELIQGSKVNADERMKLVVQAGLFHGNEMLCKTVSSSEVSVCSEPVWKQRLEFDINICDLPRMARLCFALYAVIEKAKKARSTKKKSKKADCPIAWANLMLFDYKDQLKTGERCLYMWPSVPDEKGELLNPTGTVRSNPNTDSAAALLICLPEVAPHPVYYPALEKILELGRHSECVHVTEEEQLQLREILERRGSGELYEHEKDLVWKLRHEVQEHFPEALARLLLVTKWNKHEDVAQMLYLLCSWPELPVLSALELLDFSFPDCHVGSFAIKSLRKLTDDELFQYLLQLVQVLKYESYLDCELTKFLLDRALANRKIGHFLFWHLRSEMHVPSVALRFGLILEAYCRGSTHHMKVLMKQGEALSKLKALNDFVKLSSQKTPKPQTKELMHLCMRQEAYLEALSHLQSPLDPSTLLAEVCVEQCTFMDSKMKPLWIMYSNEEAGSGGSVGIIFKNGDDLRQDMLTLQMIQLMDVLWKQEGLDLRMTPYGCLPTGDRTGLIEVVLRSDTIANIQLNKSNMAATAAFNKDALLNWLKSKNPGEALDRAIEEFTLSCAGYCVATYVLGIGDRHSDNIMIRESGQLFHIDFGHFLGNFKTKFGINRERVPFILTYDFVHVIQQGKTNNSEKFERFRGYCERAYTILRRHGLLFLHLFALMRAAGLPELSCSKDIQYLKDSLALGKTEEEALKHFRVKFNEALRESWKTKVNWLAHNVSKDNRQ
Test: Enzyme Assay
Details: not given

Compound | IC50 [nM] | Ki [nM]
Cc1n[nH]c2cc(-c3nn(Cc4oc5ccccc5c(=O)c4-c4cccc(F)c4)c4ncnc(N)c34)ccc12 | < 250 | 
Cc1c(-n2ccccc2=O)nc2cc(F)cc(F)c2c1N1CC2(CCOCC2)c2ncc(N3CCOCC3)cc21 |  | 4.64
COc1ncc(N2CCc3ncnc(N[C@H]4CCN(C(=O)[C@H]5CC[C@H](OC)CC5)C4)c3C2)cc1C(F)(F)F | 4 | 
Cc1nnc(-c2c(N)ncnc2NC(C)c2nc3cccc(C)n3c(=O)c2-c2ccccc2)o1 (centres undefined) | 443 | 
CC[C@H](Nc1ncnc(N)c1-c1nc(C)no1)c1cc2cccc(C)c2c(=O)n1-c1ccccc1 | 11 | 
O=C(Nc1ccc(CO)cc1)Nc1ccc(-c2nc(N3CCOCC3)c3ncccc3n2)cc1 | 37 | 
Cc1noc(-c2c(N)ncnc2NC(C)c2cc3cccc(Cl)c3nc2-c2ccccn2)n1 (centres undefined) | 7 | 
COCCOn1ccc(-c2ccc3nc(N)sc3c2)cc1=O | 100000 | 
Nc1ccc(-c2nc(N3CCOCC3)c3ncccc3n2)cc1 | 1100 | 
COc1ncc(N2CCc3ncnc(N[C@H]4CCN(C(=O)[C@H]5CC[C@@H](OC)CC5)C4)c3C2)cc1C(F)(F)F | 4 | 
CS(=O)(=O)N1CCN(Cc2csc3c(-c4cnc(N)nc4)nc(N4CCOCC4)nc23)CC1 | 18 | 
CCNC(=O)Nc1ccc(-c2nc(N3CCOC[C@H]3C)c3c(ncn3C)n2)cc1 |  | 4000
COc1ncc(N2CCc3ncnc(N[C@H]4CCN(C(=O)[C@H]5CC[C@H](O)CC5)C4)c3C2)cc1C(F)(F)F | 7 | 
CC(C)Oc1ccc(-c2nn(C(C)c3oc4ccccc4c(=O)c3-c3cccc(F)c3)c3ncnc(N)c23)cc1Cl (centres undefined) | < 250 | 
Cc1nnc(-c2c(N)ncnc2NC(C)c2cc3cccc(Cl)c3nc2-c2ccccn2)o1 (centres undefined) | 81 | 
CC(c1oc2ccccc2c(=O)c1-c1cccc(F)c1)n1nc(-c2ccc(O)cc2)c2c(N)ncnc21 (centres undefined) | < 250 | 
Nc1ncnc2c1c(-c1cc3cccc(O)c3[nH]1)nn2C1CCOCC1 | 100 to 500 | 
O=c1cc(N2CCOCC2)oc2c(-c3ccccc3)cccc12 | 268 | 
CCNC(=O)Nc1ccc(-c2nc(N3CCOC[C@@H]3CC)c3c(ncn3C)n2)cc1 |  | > 10000
COc1ncc(N2CCc3ncnc(N[C@H]4CCN(C(=O)[C@H]5CC[C@@H](O)CC5)C4)c3C2)cc1C(F)(F)F | 4 | 
CCNC(=O)Nc1ccc(-c2nc(N3CCCOCC3)c3c(ncn3C)n2)cc1 |  | 7300

Molecular target: ROCK2 (human) (UniProt O75116)
Sequence (O75116 whole entry, looked up): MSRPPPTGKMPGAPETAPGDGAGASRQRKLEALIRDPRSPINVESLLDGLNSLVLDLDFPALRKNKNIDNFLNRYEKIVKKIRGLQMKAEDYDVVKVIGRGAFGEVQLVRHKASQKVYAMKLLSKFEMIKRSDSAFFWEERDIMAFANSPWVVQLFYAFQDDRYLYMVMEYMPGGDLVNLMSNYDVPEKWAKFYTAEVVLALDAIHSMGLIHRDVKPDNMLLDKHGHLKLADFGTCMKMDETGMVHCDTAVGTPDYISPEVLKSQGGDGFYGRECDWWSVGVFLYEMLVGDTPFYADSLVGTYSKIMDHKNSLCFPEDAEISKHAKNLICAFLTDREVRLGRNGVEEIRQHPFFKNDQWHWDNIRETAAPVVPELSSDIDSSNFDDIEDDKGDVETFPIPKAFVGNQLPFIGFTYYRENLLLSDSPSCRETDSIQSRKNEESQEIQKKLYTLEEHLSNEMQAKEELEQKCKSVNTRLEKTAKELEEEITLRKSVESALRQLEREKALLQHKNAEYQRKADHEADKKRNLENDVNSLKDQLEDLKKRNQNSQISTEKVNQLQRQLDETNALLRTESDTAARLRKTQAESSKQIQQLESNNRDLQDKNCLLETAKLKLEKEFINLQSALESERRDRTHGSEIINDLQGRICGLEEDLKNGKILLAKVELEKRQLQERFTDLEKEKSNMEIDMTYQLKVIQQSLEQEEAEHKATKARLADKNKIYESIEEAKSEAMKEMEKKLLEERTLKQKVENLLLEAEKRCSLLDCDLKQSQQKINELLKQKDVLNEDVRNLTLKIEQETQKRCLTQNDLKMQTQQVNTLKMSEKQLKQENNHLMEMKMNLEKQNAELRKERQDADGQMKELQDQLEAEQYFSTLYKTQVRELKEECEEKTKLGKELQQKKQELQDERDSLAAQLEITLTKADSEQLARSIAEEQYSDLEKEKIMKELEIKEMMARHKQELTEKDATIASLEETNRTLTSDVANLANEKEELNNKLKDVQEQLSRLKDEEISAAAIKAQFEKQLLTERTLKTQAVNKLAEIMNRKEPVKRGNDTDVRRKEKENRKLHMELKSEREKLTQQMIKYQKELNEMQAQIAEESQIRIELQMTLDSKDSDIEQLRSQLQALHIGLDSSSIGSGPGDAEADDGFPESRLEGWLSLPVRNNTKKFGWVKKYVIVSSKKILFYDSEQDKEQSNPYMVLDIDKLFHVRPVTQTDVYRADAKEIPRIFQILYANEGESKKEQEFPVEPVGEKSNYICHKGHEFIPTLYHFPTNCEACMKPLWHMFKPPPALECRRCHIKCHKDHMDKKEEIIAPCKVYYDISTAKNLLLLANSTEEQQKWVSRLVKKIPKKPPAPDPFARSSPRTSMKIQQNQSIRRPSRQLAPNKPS
Test: Enzyme Assay
Details: not given

Compound | IC50 [nM] | Ki [nM]
Nc1cccc(CN2CC[C@@H](Nc3cccc4cnccc34)C2)c1 | 25 | 
COc1cc(C(=O)NCc2ccc(Cl)cc2)ccc1-c1cn[nH]c1 | 4.93 | 
CC(C)COC(=O)c1cccc(NC(=O)c2cccc(-c3cc(C(=O)Nc4ccncc4F)ccc3CN)c2)c1 | 2.6 | 
COc1ccc2c(c1)CN(c1nc3c(c(Nc4ccc5[nH]ncc5c4)n1)CNC3)C2 | 24300 | 
CNC(=O)C[C@@H](NC(=O)c1ccc(-c2cn[nH]c2)c(C)c1)c1ccccc1 | 21.7 | 
COc1cccc([C@@H](C)NC(=O)c2cc3ccc(-c4cn[nH]c4)cc3[nH]2)c1 | 1 | 
C.COC(=O)c1ccc(C(=O)Nc2cccc(CNC3CCC(Nc4cccc5cnccc45)CC3)c2)cc1 (centres undefined) | < 100 | 
COCCC(=O)c1ccc(C(=O)Nc2cccc(CN3CCC(Nc4cccc5cnccc45)CC3)c2)cc1 | < 100 | 
COc1cc(C(=O)NCc2cccc(Cl)c2)ccc1-c1cn[nH]c1 | 49.7 | 
Oc1ccc(-c2nc(-c3ccc(F)cc3)c(-c3ccncc3)[nH]2)cc1 |  | 3980
COc1cccc(CN(C)C(=O)Nc2ccc(-c3cn[nH]c3)cc2OCCN2CCCC2)c1 | < 1 | 

Same assay, conditions: concentration not given here

Compound | activity [%]
O=S(=O)(NCCNC/C=C/c1ccc(Br)cc1)c1cccc2cnccc12 | 0
O=C1NC(=O)C(c2c[nH]c3ccccc23)=C1c1c[nH]c2ccccc12 | 100
CN[C@@H]1C[C@H]2O[C@@](C)([C@@H]1OC)n1c3ccccc3c3c4c(c5c6ccccc6n2c5c31)C(=O)N[C@@H]4O | 22
CO[C@H]1C[C@@H]2CC[C@@H](C)[C@@](O)(O2)C(=O)C(=O)N2CCCC[C@H]2C(=O)O[C@H]([C@H](C)C[C@@H]2CC[C@@H](O)[C@H](OC)C2)CC(=O)[C@H](C)C=C(C)[C@@H](O)[C@@H](OC)C(=O)[C@H](C)C[C@H](C)C=CC=CC=C1C | 106

Molecular target: PIK3CA (human) (UniProt P42336)
Test: Inhibition of PIK3CA Kinase Activity
Details: not given

Compound | IC50 [nM]
N=C1NC(=O)/C(=C/c2ccc3c(c2)OCO3)S1 | 20000

Molecular target: ROCK2 (human) (UniProt O75116)
Test: Inhibition of ROCK2 Kinase Activity
Details: not given

Compound | IC50 [nM]
COc1cccc(CNC(=O)c2c[nH]c3cc(-c4cn[nH]c4)ccc23)c1 | < 1
O=C(NCc1ccc(F)cc1)Nc1nc(-c2ccncc2)cs1 | 19
Nc1nc(Nc2ccc(Sc3ccncc3)c(F)c2)cc(-c2ccc3ncccc3c2)n1 | 7
O=C([C@H](O)c1cccc(Cl)c1)N1CCN(c2ccc3[nH]ncc3c2)CC1 | 100
CN1CCCN(c2nc(-c3ccncc3)cnc2N)CC1 | 3100

Molecular target: PIK3CD (Human) (UniProt O00329)
Test: Inhibition of PIK3CD Kinase Activity
Details: not given

Compound | IC50 [nM]
Fc1ccc(Cl)c(-c2nc3c(Cl)cccc3cc2CNc2ncnc3[nH]cnc23)c1 | 71
Cc1ccccc1-c1nc2c(C)cccc2cc1COc1ncnc2[nH]cnc12 | 27
CN1CCC(c2ccccc2CC(C)(C)Nc2nc(N3CCOCC3)nc(-n3c(C(F)F)nc4ccccc43)n2)C1 (centres undefined) | < 100
O=C1NC(=S)S/C1=C\c1ccc2c(c1)OCO2 | 20000
C[C@H](Nc1ncnc2[nH]cnc12)c1cc2ccc(F)cc2nc1-c1cccnc1 | 23
O=C1NC(=O)/C(=C/c2ccc3cc(F)oc3c2)S1 | 20000
Nc1ncnc2c1c(I)nn2Cc1cc2c(Cl)cccc2nc1-c1ccccc1Cl | 35
O=C1NC(=O)/C(=C/c2ccc3c(c2)OCCO3)S1 | 20000
CN1C(=O)COc2ccc(/C=C3\SC(=O)NC3=O)cc21 | 20000
N=C1NC(=O)/C(=C/c2ccc3c(c2)OCO3)S1 | 20000
O=c1cc(N2CCOCC2)oc2c(-c3ccccc3)cccc12 | 1020
C[C@H](Nc1ncnc2[nH]cnc12)c1cc2cccc(Cl)c2nc1-c1cc(F)ccc1Cl | 8
O=C1NC(=O)/C(=C/c2ccc3c(c2)NCCO3)S1 | 20000

Molecular target: PIK3CA (human) (UniProt P42336)
Test: Assessment of PIK3CA Kinase Activity
Details: not given

Compound | IC50 [nM]
O=C(Nc1ccc(-c2nc(N3CCOCC3)nc(N3CCOCC3)n2)cc1)NC1CCNCC1 | 1520
O=C(Nc1ccc(-c2nc(N3CCOCC3)nc(N3CCOCC3)n2)cc1)Nc1ccc(F)cc1F | 60.5
O=C(Nc1ccc(-c2nc(N3CCOCC3)nc(N3CCOCC3)n2)cc1)Nc1cccs1 | 2
O=c1n(Cc2ccccc2)c2nc(-c3cccc(O)c3)nc(C3=CCOCC3)c2n1Cc1ccccc1 | 2420
Oc1cncc(-c2nc(C3=CCOCC3)c3ncn(C4CCN(Cc5cncc(Br)c5)CC4)c3n2)c1 | 1340
CCNC(=O)Oc1nc2cc(-c3nc(N4CCOCC4)c4ccn(CC(F)(F)F)c4n3)ccc2[nH]1 | 1840
O=C(NCCO)Oc1ccc(-c2nc(N3CCOCC3)c3ccn(CC(F)(F)F)c3n2)cc1 | 570

Molecular target: PIK3CG (human) (UniProt P48736)
Sequence (P48736 whole entry, looked up): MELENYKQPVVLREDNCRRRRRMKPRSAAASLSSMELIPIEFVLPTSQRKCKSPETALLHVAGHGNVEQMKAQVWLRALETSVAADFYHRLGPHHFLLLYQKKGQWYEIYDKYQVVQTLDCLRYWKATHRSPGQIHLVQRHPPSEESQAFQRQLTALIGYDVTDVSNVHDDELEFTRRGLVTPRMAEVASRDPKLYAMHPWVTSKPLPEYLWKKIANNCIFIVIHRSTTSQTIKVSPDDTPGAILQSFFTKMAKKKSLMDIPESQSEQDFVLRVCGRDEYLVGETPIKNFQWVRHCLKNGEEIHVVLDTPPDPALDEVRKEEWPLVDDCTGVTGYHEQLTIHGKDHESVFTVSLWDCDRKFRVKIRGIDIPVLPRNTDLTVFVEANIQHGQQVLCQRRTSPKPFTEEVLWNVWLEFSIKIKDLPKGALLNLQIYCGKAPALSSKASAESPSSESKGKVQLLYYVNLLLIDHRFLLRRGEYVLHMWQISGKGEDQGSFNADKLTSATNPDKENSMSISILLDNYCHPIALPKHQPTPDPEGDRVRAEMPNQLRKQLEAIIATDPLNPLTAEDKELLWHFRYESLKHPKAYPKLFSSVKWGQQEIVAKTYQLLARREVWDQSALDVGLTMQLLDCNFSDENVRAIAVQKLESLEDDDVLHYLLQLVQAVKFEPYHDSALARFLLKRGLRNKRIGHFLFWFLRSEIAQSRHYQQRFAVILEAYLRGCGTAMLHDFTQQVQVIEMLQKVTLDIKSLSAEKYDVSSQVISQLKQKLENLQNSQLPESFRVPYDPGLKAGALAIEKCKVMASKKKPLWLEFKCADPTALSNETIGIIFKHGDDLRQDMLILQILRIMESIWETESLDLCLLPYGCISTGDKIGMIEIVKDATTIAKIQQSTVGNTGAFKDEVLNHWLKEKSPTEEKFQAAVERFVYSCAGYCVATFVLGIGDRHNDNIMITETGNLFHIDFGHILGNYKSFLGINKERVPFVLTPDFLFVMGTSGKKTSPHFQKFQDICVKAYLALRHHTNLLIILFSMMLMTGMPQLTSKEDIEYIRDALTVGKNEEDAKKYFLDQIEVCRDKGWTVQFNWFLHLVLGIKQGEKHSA
Test: Assessment of PIK3CG Kinase Activity
Details: not given

Compound | IC50 [nM] | Ki [nM] | Kd [nM]
CNS(=O)(=O)c1cncc(-c2ccc3nc(NC(C)=O)nn3c2)c1 | 7.94 |  | 
CC(=O)Nc1nc(C)c(-c2ccc(S(=O)(=O)N[C@H](CO)c3ccccc3)o2)s1 |  | < 100 | 
COc1cc2sc(C(=O)Nc3nnn[nH]3)c(SCCc3ccccc3)c2cc1C | 215 |  | 
O=C(Nc1ccc(-c2nc(N3CCOCC3)nc(N3CCOCC3)n2)cc1)NC1CCNCC1 | 7470 |  | 
CCOc1ccc2sc(C(=O)Nc3nnn[nH]3)c(SCCc3ccccc3)c2c1 | 2850 |  | 
COc1ccc(C2=NNC(=O)C2=NNc2cccnc2)cc1 |  | 1000 | 
O=C(Nc1ccc(-c2nc(N3CCOCC3)nc(N3CCOCC3)n2)cc1)Nc1ccc(F)cc1F | 528 |  | 
O=C(Nc1ccc(-c2nc(N3CCOCC3)nc(N3CCOCC3)n2)cc1)Nc1cccs1 | 23 |  | 
Cc1nc(Nc2cc(C(=O)O)n(CCc3ccccc3)c2)nc2c1ccc(=O)n2C | 148 |  | 
CC(=O)Nc1nc(C)c(-c2ccc(S(C)(=O)=O)cn2)s1 | 1840 |  | 
COc1cc(C#Cc2cc(NC(=O)NCCOCC3CC3)nn2C)cnc1OC |  | < 100 | 
COc1ccc(C2=NNC(=O)C2=NNc2ccccc2)cn1 |  | 540 | 
Cc1nc(Nc2cc(C(=O)O)n(CCc3ccccc3)c2)nc2c1cc(F)c(=O)n2C1CCCC1 | 15 |  | 
COc1ccc2sc(C(=O)Nc3nnn[nH]3)c(Sc3ccoc3C)c2c1 | 2210 |  | 
COc1ccc2sc(C(=O)Nc3nnn[nH]3)c(Sc3cccc(Cl)c3Cl)c2c1 | 3450 |  | 
COc1cc2sc(C(=O)Nc3nnn[nH]3)c(SCCc3ccccc3)c2cc1OC | 522 |  | 
COc1cc2c(Sc3cccc(Cl)c3)c(C(=O)Nc3nnn[nH]3)sc2cc1C | 170 |  | 
CCOC(=O)c1cc(Nc2nc(C)c3ccc(=O)n(C)c3n2)cn1CCc1ccccc1 | 63 |  | 
COC(=O)Nc1nc2ccc(C(=O)c3cccs3)cc2[nH]1 |  |  | 1500
O=c1n(Cc2ccccc2)c2nc(-c3cccc(O)c3)nc(C3=CCOCC3)c2n1Cc1ccccc1 | 1610 |  | 
Oc1cncc(-c2nc(C3=CCOCC3)c3ncn(C4CCN(Cc5cncc(Br)c5)CC4)c3n2)c1 | 6740 |  | 
CCNC(=O)Oc1nc2cc(-c3nc(N4CCOCC4)c4ccn(CC(F)(F)F)c4n3)ccc2[nH]1 | 210 |  | 
O=C(NCCO)Oc1ccc(-c2nc(N3CCOCC3)c3ccn(CC(F)(F)F)c3n2)cc1 | 1720 |  | 
CCOC(=O)c1cc(Nc2nc(C)c3cc(F)c(=O)n(C4CCCC4)c3n2)cn1CCc1ccccc1 | 160 |  | 
Cc1nc(Nc2cc(C(=O)O)n(C)c2)nc2c1ccc(=O)n2C1CCCC(C)C1 (centres undefined) | 180 |  | 

Molecular target: PIK3CD (Human) (UniProt O00329)
Test: Assessment of PIK3CD Kinase Activity
Details: not given

Compound | Ki | IC50 [nM]
Cc1c(-c2ccccc2[S+](C)[O-])nc2cc(F)cc(F)c2c1Nc1cc(N2CCOCC2)cnc1N1CCOCC1 (centres undefined) | 51 nM | 
C[C@H](Nc1ncnc(N)c1C#N)c1nc2ccc(F)cc2c(C(=O)O)c1-c1ccccc1 | 74.2 nM | 
C[C@H](Nc1ncnc(N)c1C#N)c1nc2ccc(F)cc2c(C#N)c1-c1ccccc1 | 2.76 nM and 1.33 nM | 
Cc1c(N2CCN(C(=O)N(C)C)CC2)nc2cc(F)cc(F)c2c1Nc1cncc(N2CCOCC2)c1C(=O)N(C)C | 81.6 nM | 
CCc1cccn2c(-c3cccc(F)c3)c(C(C)Nc3ncnc4[nH]cnc34)nc12 (centres undefined) |  | 500 to 990
CC(Nc1ncnc(N)c1C#N)c1nc2ccc(F)cc2c(C(=O)N(C)C)c1-c1ccccn1 (centres undefined) | 7.77 nM | 
C[C@H](Nc1ncnc(N)c1C(N)=O)c1nc2ccc(F)cc2c(C(=O)O)c1-c1ccccc1 | 7.16 nM | 
Cc1ncc2c(Cl)cc(C(C)Nc3ncnc4[nH]cnc34)c(-c3cccc(F)c3)n12 (centres undefined) |  | ≤ 50
Cc1c(-c2ccccc2[S+](C)[O-])nc2cc(F)cc(F)c2c1Nc1cncc(N2CCOCC2)c1 (centres undefined) | 3.89 nM | 
